In patent publication US6521609B1, “Use of CGRP antagonists and CGRP release inhibitors for combating menopausal hot flushes” (Boehringer Ingelheim Pharma KG, priority 1999, dated 2003):

The molecules below were run on increased blood flow through the facial skin caused by endogenous CGRP (assay: Trigeminal ganglion stimulation in marmosets: facial skin blood flow (laser Doppler)). Conditions: anaesthetized marmosets, i.v. 5 minutes before trigeminal ganglion stimulation (10 Hz, 2 mA, 2 msec, 30 seconds).
Format: in vivo, marmoset
Procedure: The efficacy of the following test substances was characterised by determining the dose administered i.v. which reduces by 50% the increased blood flow through the skin of the face which has been brought about by endogenous CGRP:
Marmosets of both sexes (300-400 g) are anaesthetized with pentobarbital (initially with 30 mg/kg, i.p., followed by infusion of 6 mg/kg/h, […].). The body temperature is maintained at 37° C. using a heating plate. Pancuronium is administered as a muscle relaxant (initially 1 mg/kg, 0.5 mg after each hour thereafter). The animal's head is secured in a stereotactical apparatus. After the skin on the head has been opened using a lengthwise incision, a small hole is drilled in the skull and a bipolar electrode (Rhodes SNES 100) is lowered into the trigeminal ganglion. […] The petrous bone serves as a guide for placing the electrode (CCX-Digital X-ray apparatus). The position of the electrode in the ganglion is monitored at the end of each experiment. The stimulation parameters are: 10 Hz, 2 mA, 2 msec, for 30 seconds. The blood flow in the micro-vessels of the facial skin is determined by laser Doppler flow measurement using a PeriFlux Laser Doppler System. The animals are exposed to 2 to 3 stimulation periods at intervals of 30 minutes in each case. The first stimulation serves as a reference value for the other stimulations. The test substances are administered i.v. 5 minutes before the 2nd and 3rd stimulation periods.

| Structure (SMILES) | 50% dose (i.v. dose which reduces by 50% the increased blood flow through the facial skin caused by endogenous CGRP) |
| --- | --- |
| Nc1c(Br)cc(C[C@@H](NC(=O)N2CCC(N3Cc4ccccc4NC3=O)CC2)C(=O)N2CCC(N3CCCCC3)CC2)cc1Br [AM] | 0.046 mg/kg |
| CNS(=O)(=O)Cc1ccc2[nH]cc(CCN(C)C)c2c1 [DA] | 0.280 mg/kg |
| CN(C)CCc1c[nH]c2ccc(C[C@H]3COC(=O)N3)cc12 [DB] | 0.035 mg/kg |
